The test system of assay [1] is adult ventricular cardiomyocytes (AT1R). Put plainly: Adult ventricular cardiomyocyte contractility. It counts as cell-based, mouse. Conditions: 25 μM, 20 min; TRV027 10 μM; paced at 1 Hz. On the procedure:
All animal experiments were approved by the Institutional Animal Care and Use Committee (IACUC) at Duke University Medical Center and performed in accordance with relevant guidelines and regulations. Ventricular cardiomyocytes were freshly isolated from 12- to 16-week-old C57BL/6J wild-type mice using a standard Langendorff perfusion system[39],[74]. The heart was initially cannulated through the aorta and then perfused with an oxygenated buffer at 37 °C (120 mM NaCl, 14.8 mM KCl, 0.6 mM KH2PO4, 0.6 mM Na2HPO4, 1.2 mM MgSO4·7H20, 10 mM HEPES, 4.6 mM NaHCO3, 30 mM taurine, and 5.6 mM glucose, pH 7.3). After 2 min, the buffer was switched to a digestion solution containing 2.4 mg ml^−1 collagenase (Worthington). Following 8 min of digestion, ventricles were transferred to a stopping buffer that included 10% calf serum. Myocytes were then manually dissociated and gradually brought to a physiological Ca^2+ concentration (1.2 mM). Isolated cardiomyocyte was first pretreated with DMSO (0.1%), C5, C46 or C64 (25 µM) for 20 min followed by treatment with HBSS (basal), angiotensin II (positive control, 10 µM) or TRV027 (10 µM). Cells were plated in a chamber (Ionoptix) on a Nikon Eclipse TE300 inverted microscope (40× 0.9 NA objective, MRF00400, Nikon). Cardiomyocytes were paced at 1 Hz and 20 V (MyoPacer, Ionoptix), and sarcomere length was recorded by a MyoCam-S camera (Ionoptix). Ten consecutive contractions per cell (7–12 cells per condition) were averaged to quantify contractility and kinetic parameters (IonWizard 7.2). […] Sample size represents the number of hearts at each condition derived from an average of 7–12 cells per heart for each condition. Statistical comparisons between conditions were performed using one-way ANOVA followed by Sidak post hoc test.

In a further assay the test system is Gαi. Description: ITC binding to purified Gαi. The protocol:
ITC measurements were performed on a MicroCal iTC200 system at 25 °C. Prior to ITC experiments, all proteins (βARR1, βARR2 or βARR1 mutants) were extensively dialysed against 20 mM HEPES (pH 7.4), 100 mM NaCl, and 3 μM TCEP. Protein concentrations were determined by spectrophotometry at 280 nm, using extinction coefficients calculated from each protein sequence via the ProtParam program. The dialysis buffer was used to dilute DMSO stock solutions of β-arrestin small-molecule modulators to their final concentrations for measurements. For each ITC experiment, β-arrestin modulators (Cmpd-5 at 350 μM, Cmpd-46 at 450 μM, and Cmpd-64 at 450 μM) were loaded into the syringe and titrated into the calorimetric cell containing βARR1, βARR1 mutants or βARR2 (at about 30–40 μM, depending on the protein and experiment). Additional ITC experiments were also performed using purified GST-fused Gα subunits (Gαs, Gαq and Gαi; about 30 μM) and Gαiβγ heterotrimer (about 30 μM). Gα subunits were prepared in the same buffer (20 mM HEPES, pH 7.4, 100 mM NaCl, 3 μM TCEP), whereas the Gαiβγ heterotrimer was maintained in buffer supplemented with 0.05% DDM and 10 μM GDP, with matched DMSO carrier conditions. Modulators (300 μM) or corresponding DMSO controls were loaded and titrated as described above. The reference cell was filled with distilled water. In all experiments, the titration sequence typically consisted of an initial 0.4 μl injection, followed by 19 injections of 2 μl each, with a 180-s interval between injections to allow thermal power to return to baseline. During the experiment, the reference power was set to 7 μcal s^−1, and the sample cell was stirred continuously at 750 rpm. […] Data were analysed and fit using a one-site independent binding model to obtain the equilibrium dissociation constant, Kd (from the association constant Ka = 1/Kd), stoichiometry (N), and thermodynamic parameters including enthalpy (ΔH) and entropy (−TΔS) of binding. Data were analysed using MicroCal PEAQ-ITC analysis software (v1.1.0.1262).

The test system of assay [2] is β-arrestin-dependent ERK1/2 activation downstream of β2AR. Put plainly: Carvedilol-stimulated ERK1/2 phosphorylation in β2AR HEK293 cells. Conditions: 30 μM; carvedilol 10 μM, 5 min. The format is cell-based. On the procedure: To evaluate the effect of small-molecule modulators on β-arrestin-dependent ERK1/2 signalling, HEK293 cells stably expressing β2AR were serum-starved for 6 h (refs. [34],[75]), then pretreated with β-arrestin modulators (30 μM) or vehicle for 20 min at 37 °C. Cells were subsequently stimulated with carvedilol (10 μM, 5 min), a β-arrestin-biased agonist known to promote ERK1/2 phosphorylation via β-arrestin scaffolding of RAF–MEK–ERK signalling components. Cells were lysed, sonicated (15 s), and centrifuged at 14,000g for 15 min at 4 °C. Equal amounts of total protein were resolved by SDS–PAGE on 4–20% Tris-Glycine gels (Thermo Fisher Scientific), transferred to nitrocellulose or PVDF membranes, and immunoblotted with anti–phospho-ERK1/2 (1:2,000; Cell Signaling) and total ERK1/2 (1:10,000; Millipore Sigma). HRP-conjugated secondary antibodies were used for detection. Protein bands were visualized using Pierce SuperSignal West Pico ECL substrate (Thermo Fisher Scientific), imaged on a ChemiDoc XRS system (Bio-Rad) and quantified by densitometry using ImageLab (Bio-Rad). Data were analysed using GraphPad Prism.

For another assay, the system named is M2R–Gi. Description: TRUPATH BRET2 Gα–Gβγ dissociation, M2R–Gi. The format is cell-based, human. Conditions: 50 μM, 15 min; ACh; βarr1/2 KO cells. On the procedure: TRUPATH assays[73] were performed in HEK293 βARR1/2-knockout cells transiently transfected using FuGENE4K with a total of 4 μg per 15 cm dish plasmid DNA, including pcDNA3.1 constructs encoding human GPCRs (β2AR, AT1R, M2R or NTSR1), Gα–RLuc8, Gβ3 and Gγ9–GFP2 at a 1:1:1:1 ratio. TRUPATH components were obtained from B. Roth via Addgene (1000000163). Twenty-four hours after transfection, cells were replated into poly-D-lysine-coated 96-well white, clear-bottom plates at 20,000–30,000 cells per well in phenol red-free DMEM supplemented with 2% FBS. BRET signals were acquired 48 h after transfection. On the day of the assay, cells were washed and incubated in HBSS containing 20 mM HEPES (pH 7.4). Modulators were applied at 50 μM for 15 min, followed by addition of Prolume Purple substrate (Nanolight Technologies). Cells were then stimulated with increasing concentrations of agonist (angiotensin II, neurotensin, isoproterenol or acetylcholine). BRET2 was recorded in kinetic mode for 30 min using a CLARIOstar Plus plate reader (480 nm/510 nm), and peak signals were used for quantification. ΔNet BRET ratios were calculated by subtracting the BRET ratio of the vehicle-treated control from each condition, agonist alone or agonist plus modulator. […]

A further assay deals with D2R–Gi. Description: TRUPATH BRET2 Gα–Gβγ dissociation, D2R–Gi. The format is cell-based. Conditions: 50 μM; quinpirole; βarr1/2 KO cells.

“Also recorded” adds a separate entry of the source.

Take `C=C1C(=O)[C@]23[C@H](O)[C@H]1CC[C@H]2[C@@]12CO[C@]3(O)[C@@H](O)[C@@H]1C(C)(C)CC[C@@H]2O` [Cmpd-5, (1S,4aR,5S,6S,6aR,9S,11aS,11bS,14R)-1,5,6,14-tetrahydroxy−4,4-dimethyl-8-methylenedecahydro-1H-6,11b-(epoxymethano)-6a,9-methanocyclohepta[a]naphthalen-7(8H)-one]: in assay [1], the “effect on TRV027-enhanced sarcomere shortening, contraction and relaxation velocity” value (“effect … contraction and relaxation velocity” for short) was “significantly inhibited”. Moreover, the “binding to Gαi” value with Gαi was “no measurable affinity”. The “effect on β-arrestin-dependent ERK1/2 activation” value in assay [2] is reported as “significantly attenuated; also recorded: attenuate”.
Regarding `C=C1C(=O)OC2CC3(C)OC3CCC(C)=CC(OC(C)=O)C12` (stereo not shown) [Cmpd-64, (Z)-4,10a-dimethyl-7-methylene-8-oxo-1a,2,3,6,6a,7,8,9a,10,10a decahydrooxireno[2’,3’:8,9]cyclodeca[1,2-b]furan-6-yl acetate], the “mean fractional decrease vs DMSO in maximal Gα–Gβγ dissociation, M2R” value in the assay with M2R–Gi is listed as −0.38. Also, the “effect … contraction and relaxation velocity” value in assay [1] was “significantly inhibited”. Also, in the assay with Gαi, the “binding to Gαi” value is listed as “very weak binding”. Besides, in the assay with D2R–Gi, the “mean fractional decrease vs DMSO in maximal Gα–Gβγ dissociation, D2R” value is given as −0.27. For the same compound, the “effect on β-arrestin-dependent ERK1/2 activation” value in assay [2] is recorded as “significantly attenuated; also recorded: attenuate”.
Consider `C=C1C(=O)C2=CC1CCC(=O)C1(C)CCC(OCC)C(C)(C)C1CC2O` (stereo not shown) [Cmpd-46, (Z)-3-ethoxy-6-hydroxy-4,4,13a-trimethyl-9-methylene-1,2,3,4,4a,5,6,9,10,11,12,13a-dodecahydro-7,10-(metheno)benzo[11]annulene-8,13-dione], for which the “mean fractional decrease vs DMSO in maximal Gα–Gβγ dissociation, M2R” value in the assay on M2R–Gi is on record as −0.32. For the same compound, in assay [1], the “effect … contraction and relaxation velocity” value is given as “significantly inhibited”. In the assay with Gαi, the “binding to Gαi” value is “no measurable affinity”. For the same compound, the “mean fractional decrease vs DMSO in maximal Gα–Gβγ dissociation, D2R” value in the assay with D2R–Gi is reported as −0.18. Besides, the “effect on β-arrestin-dependent ERK1/2 activation” value in assay [2] was “significantly attenuated; also recorded: attenuate”.

Values taken from PMC13489962, “Small-molecule modulation of β-arrestins” (Nature, 2026).
